Laboratory results: paper PMC8110993, “Structure and antimicrobial activity of NCR169, a nodule-specific cysteine-rich peptide of Medicago truncatula” (Scientific Reports, 2021)
pIC50: −log10 of the molar value. Like-named read-outs stand apart in the source and are kept apart here. Where a SMILES comes first, the peptide text is derived from it. Bridges are numbered along the chain shown (N, C = ends).

What was measured:
[1] = HPLC retention time as measure of surface hydrophobicity; assay type: physicochemical; conditions: C18 column, linear gradient 30 to 45% acetonitrile, 220 nm; compared with NCR169 oxidized forms
Experimental: Figure 1 Sample preparation of NCR169 peptides. (A) High-performance liquid chromatography (HPLC) analyses of NCR169 peptides. Purified NCR169-ox1, NCR-ox2, NCR169-red, and reoxidized NCR169-red (NCR-red + GSSG) were analyzed by HPLC with a linear gradient of 30 to 45% acetonitrile and monitored at 220 nm. (B) MALDI-TOF–MS spectra of HPLC-purified NCR169-ox1 (upper), NCR169-ox2 (middle), and NCR169-red (lower). (C) Amino acid sequences of NCR169 peptides used in this study. The cysteine numbers (C1 to C4) are indicated in red on the sequence. The experimentally determined disulfide linkage patterns are indicated by connecting lines on the sequences. The first N-terminal residue, G (underlined), is the extra residue remaining after tag cleavage.
(§1) To confirm it, we examined the solubility of NCR169 in various solvents, HEPES (salt-free), HEPES with salt (50 to 200 mM NaCl or KCl), and PBS. […] In other words, the disulfide bonds of NCR169 contribute to its solubility.
To prepare the reduced peptide (NCR169-red), NCR169-ox was reduced with 10 mM tris(2-carboxyethyl)phosphine (TCEP) at pH 10.5, followed by acidification using trifluoroacetate (TFA) and HPLC purification with a C18 column and 30–45% ACN gradient. The fractions were collected and dried under vacuum conditions. The purified peptides were confirmed using MALDI-TOF–MS.

[2] = assay type: physicochemical
Experimental: as §1
Supplementary Figure S3. Solubility assessment of NCR169. The same amount of NCR169 was dissolved in various solvents. After incubation at room temperature for 1 h, the solution was centrifuged at 20,000 × g and the supernatant was analyzed by Tricine-SDS-PAGE. […]

[3] = Liposome sedimentation (binding) assay; conditions: peptide 20 μM, 2 mM DMPG liposomes, 20 mM HEPES, 150 mM NaCl, pH 7.0, 30 min room temperature, 200,000×g, supernatant and pellet by Tricine-SDS-PAGE
Experimental: (§2) Figure 3 NCR169 binds to the bacterial phospholipid. (A) Circular dichroism (CD) spectra of NCR169 peptides (NCR169-ox1 and -ox2). NCR169 peptides (20 μM) were dissolved in the following solvents: water (No additives), 2 mM DMPC liposomes, 2 mM DMPG liposomes or 30% 2,2,2-trifluoroethanol (TFE). (B) The results of liposome binding assays. The NCR169 peptide (20 μM) was incubated with buffer (No lipid), 2 mM DMPC liposomes, or 2 mM DMPG liposomes. After incubation at room temperature for 30 min, the mixture was ultra-centrifuged at 200,000×g. The supernatant and pellet fractions were analyzed by Tricine-SDS-PAGE. The no lipid sample before ultra-centrifugation was used as the input.
(§3) The phospholipids DMPC and DMPG were purchased from Avanti Polar Lipids (Alabaster, AL, USA). An appropriate amount of phospholipid was dissolved in chloroform and dried under vacuum for 1 h. The lipid film was suspended in water, vortexed, and sonicated for 30 min to form the liposomes.
(§4) The assay was carried out as described previously. Briefly, equal volumes of NCR169 peptide (20 μM) and liposomes (2 mM) were mixed in assay buffer (20 mM HEPES, 150 mM NaCl, pH 7.0) and incubated for 30 min at room temperature, followed by ultracentrifugation at 200,000×g for 15 min at 20 °C. After centrifugation, the supernatant was collected, and the pellet was dissolved in the same volume of assay buffer containing 0.2% Triton X-100. The supernatant and pellet fractions were subjected to Tricine-SDS-PAGE, and peptides were detected by Coomassie Brilliant Blue staining.
Supplementary Figure S11. NCR 169 M binds to the bacterial phospholipid. (A) Circular dichroism (CD) spectra of NCR169M (20 μM) in water (No additive), 2 mM dimyristoylphosphatidylcholine (DMPC) liposomes, 2 mM dimyristoylphosphatidylglycerol (DMPG) liposomes or 30% 2,2,2-trifluoroethanol (TFE). (B) The result of liposome binding assay. NCR169M (20 μM) was incubated with buffer (No lipid),2 mM DMPC liposomes, or 2 mM DMPG liposomes . After incubation at room temperature for 30 min, the mixture was ultra-centrifuged at 200,000 × g. The supernatant and pellet fractions were analyzed by Tricine-SDS-PAGE. The no lipidsample before ultra-centrifugation was used as the input.
(also on this page, place not known: [θ] (103 deg cm2 dmol-1) markerkDa input No lipid sup ppt sup ppt sup ppt NCR169M lipid), DMPC 2 DMPG liposomes. lipid sample)
(1 picture or pasted object on this page, not shown here)
Supplementary Figure S12. The results of liposome binding assays. (A) NCR169-derived peptide (10 μM) was incubated with buffer (No lipid), 1 mM DMPC liposomes, 1 mM DMPG liposomes. After incubation at room temperature for 30 min, the mixture was ultra-centrifuged at 200,000 × g. The supernatant and pellet fractions were analyzed by Tricine-SDS-PAGE. The no lipid sample before ultra-centrifugation was used as the input. Arrows indicate weak bands. (B) […]

[4] = assay type: physicochemical; conditions: pH 2.2
Experimental: We further measured the circular dichroism (CD) spectra of NCR169-ox1 and -ox2 under various pH conditions to confirm their structural stability against pH (Supplementary Fig. S4). […] Because acidic pH is preferable for amide proton detection in NMR experiments, we performed the following solution NMR study at lower pH.
CD spectra were recorded within a wavelength range of 270–195 nm using a JASCO J-820 spectropolarimeter (JASCO International Co., Ltd., Tokyo, Japan). A quartz cell with a light path length of 1 mm was used for the measurements. The sample temperature was maintained at 25 °C during the measurements.
Supplementary Figure S4. Circular dichroism (CD) spectra of NCR169-ox1 and -ox2 under
various pH conditions. The signal reflectingβ-sheet structure (218 nm) was hardly changed.

[5] = Liposome sedimentation (binding) assay; conditions: peptide 20 μM, 2 mM DMPC liposomes, 20 mM HEPES, 150 mM NaCl, pH 7.0, 30 min room temperature, 200,000×g, supernatant and pellet by Tricine-SDS-PAGE
Experimental: as §2, §3
as §4, with “After centrifugation, the supernatant was collected, and the pellet was dissolved in the same volume of assay buffer containing 0.2% Triton X-100.” left out

Sinorhizobium meliloti = assay type: cell-based
Experimental: (§5) Antimicrobial tests were performed using the drop plate method[12],[47]. Bacterial strains in the logarithmic phase (OD600 = 0.5–0.8) were diluted with 5 mM HEPES–KOH (pH 7.0) to a bacterial culture value of 1 × 10^6 CFU/mL. At OD600 = 0.1, the concentrations of S. meliloti and E. coli K-12 cells were 6.4 × 10^6 CFU/mL and 5.2 × 10^7 CFU/mL, respectively. Equal volumes of bacteria (S. meliloti or E. coli K-12) and NCR169 peptide or PMB were mixed and incubated at room temperature for 2 h. For antimicrobial tests against S. meliloti, 10 μL of each serially diluted mixture was spotted on MHB plates with 2.5 mM MgCl2, and 2.5 mM CaCl2, followed by incubation at 30 °C for 40 h. For antimicrobial tests against E. coli K-12, 10 μL of each mixture was spotted on Mueller Hinton Broth (MHB; MilliporeSigma, Burlington, MA, USA) plates followed by incubation at 30 °C for 13 h.
(§6) To estimate survival rate, the peptide-treated bacterial mixtures were serially diluted with the buffer before spotting on the plate. Bacterial survival rates were calculated using the colony numbers of each bacterial strain with or without peptide treatment. All experiments were repeated at least four times.
(§7) Supplementary Table S2. Antimicrobial activities of NCR169 peptides against E. coliK-12 and S. meliloti.
(§8) Peptide IC50 (μM)* IC100 (μM)
(§9) E. coli K-12 S. meliloti E. coli K-12 S. meliloti
(§10) IC50: 50% inhibitory concentration (Calculated using “Dose-response curve” fitting)

Escherichia coli K-12 = assay type: cell-based
Experimental: as §5, §6, §7, §8, §9, §10

Structure (SMILES)	HPLC retention time (hydrophobicity of molecular surface) [1]	Solubility in various solvents ([2]; 20 mM HEPES pH 7.0 salt-free, or with 50 to 200 mM NaCl or KCl, and PBS pH 7.4, 1 h room temperature, centrifuged 20,000 × g, supernatant by Tricine-SDS-PAGE)	Binding to DMPG liposomes [3]	Structural stability against pH (CD spectra) [4]	Binding to DMPC liposomes [5]	pIC50 (Sinorhizobium meliloti; 2 h, pH 7)	IC100 (Sinorhizobium meliloti; S. meliloti, drop plate method, 2 h treatment at room temperature, 5 mM HEPES-KOH pH 7.0) [µM]	IC100 (Escherichia coli K-12; E. coli K-12, drop plate method, 2 h treatment at room temperature, 5 mM HEPES-KOH pH 7.0) [µM]	pIC50 (Escherichia coli K-12; K-12, 2 h, pH 7)	Solubility in various solvents [2]
CC[C@H](C)[C@H](NC(=O)CNC(=O)[C@H](CS)NC(=O)[C@H](Cc1ccc(O)cc1)NC(=O)[C@H](CCCCN)NC(=O)[C@@H](NC(=O)[C@H](Cc1c[nH]cn1)NC(=O)CNC(=O)[C@@H](NC(=O)[C@H](CC(=O)O)NC(=O)[C@H](CCC(=O)O)NC(=O)CN)[C@@H](C)CC)[C@@H](C)CC)C(=O)N[C@H](C(=O)N[C@@H](CC(=O)O)C(=O)N[C@@H](CC(=O)O)C(=O)N[C@@H](CS)C(=O)N[C@@H](Cc1ccc(O)cc1)C(=O)N[C@@H](CCCCN)C(=O)N[C@@H](CO)C(=O)N[C@@H](CCCCN)C(=O)N[C@@H](CCCCN)C(=O)N1CCC[C@H]1C(=O)N[C@@H](CC(C)C)C(=O)N[C@@H](Cc1ccccc1)C(=O)N[C@@H](CCCCN)C(=O)N[C@H](C(=O)N[C@@H](Cc1c[nH]c2ccccc12)C(=O)N[C@@H](CCCCN)C(=O)N[C@@H](CS)C(=O)N[C@H](C(=O)N[C@@H](CCC(=O)O)C(=O)N[C@@H](CC(N)=O)C(=O)N[C@H](C(=O)N[C@@H](CS)C(=O)N[C@H](C(=O)N[C@@H](CC(C)C)C(=O)N[C@@H](Cc1c[nH]c2ccccc12)C(=O)N[C@@H](Cc1ccc(O)cc1)C(=O)N[C@@H](CCCCN)C(=O)O)C(C)C)C(C)C)C(C)C)[C@@H](C)CC)C(C)C [NCR169-red] (H-GEDIGHIKYCGIVDDCYKSKKPLFKIWKCVENVCVLWYK-OH)	longer than that of the NCR169 oxidized forms	insoluble in all conditions except the salt-free buffer	–	–	–	–	–	–	–	–
CC[C@H](C)[C@@H]1NC(=O)CNC(=O)[C@@H](NC(=O)[C@H](Cc2ccc(O)cc2)NC(=O)[C@H](CCCCN)NC(=O)[C@@H](NC(=O)[C@H](Cc2c[nH]cn2)NC(=O)CNC(=O)[C@@H](NC(=O)[C@H](CC(=O)O)NC(=O)[C@H](CCC(=O)O)NC(=O)CN)[C@@H](C)CC)[C@@H](C)CC)CSSC[C@@H](C(=O)N[C@@H](Cc2ccc(O)cc2)C(=O)N[C@@H](CCCCN)C(=O)N[C@@H](CO)C(=O)N[C@@H](CCCCN)C(=O)N[C@@H](CCCCN)C(=O)N2CCC[C@H]2C(=O)N[C@@H](CC(C)C)C(=O)N[C@@H](Cc2ccccc2)C(=O)N[C@@H](CCCCN)C(=O)N[C@H](C(=O)N[C@@H](Cc2c[nH]c3ccccc23)C(=O)N[C@@H](CCCCN)C(=O)N[C@H]2CSSC[C@@H](C(=O)N[C@H](C(=O)N[C@@H](CC(C)C)C(=O)N[C@@H](Cc3c[nH]c4ccccc34)C(=O)N[C@@H](Cc3ccc(O)cc3)C(=O)N[C@@H](CCCCN)C(=O)O)C(C)C)NC(=O)[C@H](C(C)C)NC(=O)[C@H](CC(N)=O)NC(=O)[C@H](CCC(=O)O)NC(=O)[C@H](C(C)C)NC2=O)[C@@H](C)CC)NC(=O)[C@H](CC(=O)O)NC(=O)[C@H](CC(=O)O)NC(=O)[C@H](C(C)C)NC1=O [NCR169-ox1] (H-GEDIGHIKYCGIVDDCYKSKKPLFKIWKCVENVCVLWYK-OH; disulfide 10-16, 29-34)	–	–	bound to the DMPG liposomes	retained their conformations under acidic and neutral conditions	Neither NCR169-ox1 nor -ox2 bound	5.19	128	16	6.39	soluble in all conditions
